{
  "source": "ChEMBL document CHEMBL5233205",
  "about": "“VISTA inhibitors in cancer immunotherapy: a short perspective on recent progresses” (RSC Med Chem, 2021)",
  "key": {"Splenocyte [1]": {"tested_on": "Splenocyte", "assay": "Cytoprotective activity against anti-CD3/CD28 stimulated mouse splenocyte assessed as rescue of cell proliferation at 100 nM incubated for 72 hrs by CFSE staining based flow cytometric analysis", "assay_type": "functional"}, "[2]": {"target": "T1, V-type immunoglobulin domain-containing suppressor of T-cell activation (Homo sapiens, UniProt Q9H7M9)", "T1 sequence (Q9H7M9 whole entry)": "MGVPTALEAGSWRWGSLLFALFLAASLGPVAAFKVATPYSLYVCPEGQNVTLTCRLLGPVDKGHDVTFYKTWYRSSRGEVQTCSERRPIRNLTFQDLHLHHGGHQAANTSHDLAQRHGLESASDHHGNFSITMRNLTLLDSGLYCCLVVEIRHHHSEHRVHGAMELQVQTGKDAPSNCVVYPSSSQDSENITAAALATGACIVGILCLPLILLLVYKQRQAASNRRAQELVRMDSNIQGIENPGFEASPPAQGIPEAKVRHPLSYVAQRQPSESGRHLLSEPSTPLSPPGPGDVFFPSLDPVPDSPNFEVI", "assay": "Binding affinity to recombinant human His-tagged VISTA ECD incubated for 2 hrs by TR-FRET assay"}, "[3]": {"target": "T1, V-type immunoglobulin domain-containing suppressor of T-cell activation", "assay": "Binding affinity to recombinant human VISTA ECD incubated for 2 hrs by ELISA assay"}, "Splenocyte [4]": {"tested_on": "Splenocyte", "assay": "Cytoprotective activity against anti-CD3/CD28 stimulated mouse splenocyte assessed as rescue of PD-L1 stimulated inhibition of proliferation at 100 nM incubated for 72 hrs by CFSE staining based flow cytometric analysis", "set-up": "scale not given: the % may be the effect or the level left"}, "[5]": {"target": "Programmed cell death 1 ligand 1 (Homo sapiens, UniProt Q9NZQ7)", "sequence (Q9NZQ7 whole entry)": "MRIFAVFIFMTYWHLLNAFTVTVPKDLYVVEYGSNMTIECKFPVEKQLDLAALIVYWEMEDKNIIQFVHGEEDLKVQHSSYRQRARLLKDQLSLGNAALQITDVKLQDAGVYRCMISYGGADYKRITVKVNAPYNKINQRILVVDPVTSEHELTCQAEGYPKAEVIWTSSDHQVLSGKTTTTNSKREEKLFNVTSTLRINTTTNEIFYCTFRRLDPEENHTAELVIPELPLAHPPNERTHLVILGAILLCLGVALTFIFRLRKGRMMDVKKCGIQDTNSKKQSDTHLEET", "assay": "Inhibition of His-tagged human recombinant PD-L1 incubated for 15 mins by LANCE Ultra TR-FRET assay"}, "Splenocyte [6]": {"tested_on": "Splenocyte", "assay": "Cytoprotective activity against anti-CD3/CD28 stimulated mouse splenocyte co-cultured with MDA-MB-231 cells overexpressing PD-L1 assessed as rescue of cell proliferation at 100 nM incubated for 72 hrs by CFSE staining based flow cytometric analysis relative to control", "assay_type": "functional"}, "[7]": {"target": "T1, V-type immunoglobulin domain-containing suppressor of T-cell activation", "assay": "Inhibition of VISTA (unknown origin) incubated for 15 mins by LANCE Ultra TR-FRET assay"}, "[8]": {"assay": "Half life in mouse liver microsomes at 1 uM by LC-MS/MS analysis", "assay_type": "ADME, Microsome"}, "B16-F10": {"tested_on": "B16-F10", "assay": "Antimetastatic activity against mouse B16-F10 cells implanted in C57BL/6 mouse assessed as decrease in lung metastasis at 5 mg/kg,sc and measured after 14 days", "assay_type": "functional", "set-up": "scale not given: the % may be the effect or the level left", "conditions": "time 14 day"}},
  "note": "Positions of bridges follow the written chain, without caps; N, C: chain ends. Non-standard residues stand in square brackets, D forms with d. Residues, ends and D or L forms follow the SMILES beside them. *: point of attachment. X1 = N[C@@H](CO)C(=O)N[C@@H](Cc1ccccc1)C(=O)NCCCCN*; NMeT = CN[C@H](C(=O)O)[C@@H](C)O",
  "data": [
    {"smiles": "NCCCC[C@H](NC(=O)N[C@@H](CC(N)=O)C(=O)NNC(=O)[C@@H](N)CO)C(=O)O", "values": [
      {"measurement": "Activity", "setting": "Splenocyte [1]", "value": 87, "unit": "%"}
    ]},
    {"smiles": "CN(C)c1n/c(=N\\Cc2ccco2)ss1", "values": [
      {"measurement": "IC50", "setting": "[2]", "value": 4800, "unit": "nM"},
      {"measurement": "IC50", "setting": "[3]", "value": 9700, "unit": "nM"}
    ]},
    {"smiles": "C[C@H](O)[C@H](NC(=O)N[C@@H](CC(N)=O)c1nc([C@@H](N)CO)no1)C(=O)O", "values": [
      {"measurement": "Activity", "setting": "Splenocyte [4]", "value": ">70", "unit": "%"},
      {"measurement": "EC50", "setting": "[5]", "value": 66.1, "unit": "nM"},
      {"measurement": "Activity", "setting": "Splenocyte [6]", "value": 89, "unit": "%"},
      {"measurement": "EC50", "setting": "[7]", "value": 82.9, "unit": "nM"},
      {"measurement": "Activity", "setting": "Splenocyte [1]", "value": 97, "unit": "%"}
    ]},
    {"smiles": "CC[C@H](C)[C@H](NC(=O)[C@H](CCC(N)=O)NC(=O)[C@H](C)NC(=O)[C@H](CCCCN)NC(=O)[C@@H]1CCCN1C(=O)[C@H](C)NC(=O)[C@H](CC(C)C)NC(=O)[C@H](CCC(N)=O)NC(=O)[C@@H](NC(=O)[C@@H](NC(=O)[C@H](CCCNC(=N)N)NC(=O)[C@H](Cc1ccccc1)NC(=O)[C@H](CCCCN[C@@H](Cc1ccccc1)C(=O)N[C@@H](CO)C(=O)N[C@@H](CCC(=O)O)C(=O)N[C@@H](CO)C(=O)N[C@H](C(=O)N[C@@H](CC(N)=O)C(=O)N[C@@H](CO)C(=O)O)[C@@H](C)O)NC(=O)[C@H](Cc1ccccc1)NC(=O)[C@H](CO)NC(=O)[C@H](CCC(=O)O)NC(=O)[C@H](CO)NC(=O)[C@@H](NC(=O)[C@H](CC(N)=O)NC(=O)[C@@H](N)CO)[C@@H](C)O)C(C)C)[C@@H](C)O)C(=O)N[C@@H](CCCCN)C(=O)N[C@@H](CCC(=O)O)C(=O)O", "values": [
      {"measurement": "half-life at 1 µM", "setting": "[8]", "value": "> 1.5", "unit": "h"}
    ]},
    {"smiles": "C[C@H](O)[C@@H]1NC(=O)N[C@@H](CC(N)=O)C(=O)NNC(=O)[C@H](CO)NC(=O)COCCOCCNC1=O", "values": [
      {"measurement": "Activity", "setting": "Splenocyte [1]", "value": 87, "unit": "%"}
    ]},
    {"smiles": "C[C@H](O)[C@H](NC(=O)N[C@@H](CC(N)=O)c1nc([C@@H](N)CCCCN)no1)C(=O)O", "values": [
      {"measurement": "Activity", "setting": "Splenocyte [4]", "value": 96, "unit": "%"},
      {"measurement": "Activity", "setting": "Splenocyte [1]", "value": 50, "unit": "%"}
    ]},
    {"smiles": "CCCNC(=O)CC[C@H](NC(=O)N[C@H](C(=O)O)[C@H](C)O)c1nc([C@@H](N)CO)no1", "values": [
      {"measurement": "Activity", "setting": "Splenocyte [4]", "value": 119, "unit": "%"},
      {"measurement": "Activity", "setting": "Splenocyte [1]", "value": "<50", "unit": "%"}
    ]},
    {"smiles": "C[C@H](O)[C@H](NC(=O)N[C@@H](CC(N)=O)c1nc(C2(N)CCCCC2)no1)C(=O)O", "values": [
      {"measurement": "Activity", "setting": "Splenocyte [1]", "value": 86, "unit": "%"}
    ]},
    {"smiles": "C[C@@H](O)[C@H]1C(=O)N[C@@H](CO)C(=O)N[C@H](C(=O)N[C@@H](CO)C(=O)N[C@@H](Cc2ccccc2)C(N)=O)CCCCNC(=O)CC[C@H](NC(=O)[C@@H](N)CO)C(=O)N1C", "note": "(H-SE[NMeT]SKSF-NH2; lactam 2-5)", "values": [
      {"measurement": "Activity", "setting": "Splenocyte [1]", "value": 82, "unit": "%"}
    ]},
    {"smiles": "C[C@@H](O)[C@@H]1NC(=O)[C@@H](NC(=O)[C@@H](N)CO)CCCCNC(=O)CC[C@@H](C(=O)N[C@@H](CO)C(=O)N[C@@H](Cc2ccccc2)C(N)=O)NC(=O)[C@H](CO)NC1=O", "note": "(H-SKTSESF-NH2; lactam 2-5)", "values": [
      {"measurement": "Activity", "setting": "Splenocyte [6]", "value": 60, "unit": "%"}
    ]},
    {"smiles": "C[C@@H](O)[C@H](NC(=O)[C@H](CCC(N)=O)NC(=O)[C@@H](N)CO)C(=O)N[C@@H](CO)C(=O)N[C@@H](CCC(=O)NCCCCNC(=O)[C@H](Cc1ccccc1)NC(=O)[C@@H](N)CO)C(N)=O", "note": "(H-SQTSE(X1)-NH2)", "values": [
      {"measurement": "Activity", "setting": "B16-F10", "value": 64, "unit": "%"}
    ]}
  ]
}
